Test results as given in ChEMBL document CHEMBL1157194, “Recent advances in selective alpha1-adrenoreceptor antagonists as antihypertensive agents” (Bioorg Med Chem, 2008).

Legend:
[1] = Antagonist activity at adrenergic alpha1 receptor; format: functional
[2] = Binding affinity to adrenergic alpha1N receptor
[3] = Binding affinity to adrenergic alpha1H receptor
[4] = Binding affinity to adrenergic alpha1 receptor
[5] = species on record: Rattus norvegicus; assay: Antagonistic activity at alpha 1-adrenoceptor in rat; format: functional, organism-based; settings: read-out: pA2 (converted)
[6] = target: T1, Alpha-1A adrenergic receptor (Oryctolagus cuniculus, UniProt O02824); assay: Agonist activity at rabbit urethra adrenergic alpha1A receptor; format: functional
T1 sequence (O02824 whole entry): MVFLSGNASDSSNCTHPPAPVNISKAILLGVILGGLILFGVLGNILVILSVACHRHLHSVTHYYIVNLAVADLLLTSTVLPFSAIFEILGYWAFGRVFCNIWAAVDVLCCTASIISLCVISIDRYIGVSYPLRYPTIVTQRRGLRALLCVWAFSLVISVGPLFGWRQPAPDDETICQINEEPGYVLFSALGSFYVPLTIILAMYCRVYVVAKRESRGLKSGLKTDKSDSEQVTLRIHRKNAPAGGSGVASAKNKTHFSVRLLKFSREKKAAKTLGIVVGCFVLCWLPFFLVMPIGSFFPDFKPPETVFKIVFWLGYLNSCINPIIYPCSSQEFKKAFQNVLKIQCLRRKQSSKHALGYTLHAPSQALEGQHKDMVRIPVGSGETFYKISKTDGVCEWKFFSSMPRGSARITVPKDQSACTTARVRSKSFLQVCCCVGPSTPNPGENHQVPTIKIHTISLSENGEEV

[7] = target: T2, Alpha-1A adrenergic receptor (Rattus norvegicus) (UniProt P43140); assay: Antagonist activity at rat spleen adrenergic alpha1A receptor relative to phenylephrine; format: functional, tissue-based; design: scale not given: the % may be the effect or the level left
T2 sequence (whole entry): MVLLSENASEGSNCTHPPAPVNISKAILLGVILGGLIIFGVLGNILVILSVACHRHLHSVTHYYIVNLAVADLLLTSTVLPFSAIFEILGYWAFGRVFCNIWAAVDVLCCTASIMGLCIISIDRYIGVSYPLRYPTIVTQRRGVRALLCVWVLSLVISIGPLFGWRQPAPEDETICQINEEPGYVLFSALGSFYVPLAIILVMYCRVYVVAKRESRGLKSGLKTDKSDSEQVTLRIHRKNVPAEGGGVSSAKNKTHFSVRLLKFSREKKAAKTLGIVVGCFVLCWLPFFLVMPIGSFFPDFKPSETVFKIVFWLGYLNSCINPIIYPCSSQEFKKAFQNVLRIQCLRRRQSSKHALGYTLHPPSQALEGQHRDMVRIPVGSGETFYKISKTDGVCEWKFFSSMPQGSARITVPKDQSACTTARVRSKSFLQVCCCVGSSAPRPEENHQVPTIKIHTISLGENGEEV

[8] = target: T3, Alpha-1A adrenergic receptor (Oryctolagus cuniculus) (UniProt O02824); assay: Antagonist activity at rabbit urethra adrenergic alpha1A receptor relative to phenylephrine; format: functional; design: scale not given: the % may be the effect or the level left
T3 sequence (whole entry): T1 sequence (O02824 whole entry)

[9] = target: T4, Alpha-1A adrenergic receptor (Rattus norvegicus, UniProt P43140); assay: (§1) Antagonist activity at rat spleen adrenergic alpha1A receptor; format: functional, tissue-based; settings: read-out: pA2 (converted)
T4 sequence (P43140 whole entry): T2 sequence (whole entry)

[10] = target: T2, Alpha-1A adrenergic receptor (Rattus norvegicus); assay: as §1; format: functional, tissue-based
[11] = Binding affinity to adrenergic alpha2 receptor
[12] = target: D(2) dopamine receptor (Homo sapiens, UniProt P14416); assay: Binding affinity to dopamine D2 receptor
[13] = target: D(3) dopamine receptor (Homo sapiens, UniProt P35462); assay: Binding affinity to dopamine D3 receptor
[14] = target: 5-hydroxytryptamine receptor 1B (Homo sapiens, UniProt P28222); assay: Binding affinity to 5HT1B
[15] = Binding affinity to 5HT2
[16] = target: T5, Alpha-1A adrenergic receptor (Homo sapiens, UniProt P35348); assay: Binding affinity to adrenergic alpha1A receptor
T5 sequence (P35348 whole entry): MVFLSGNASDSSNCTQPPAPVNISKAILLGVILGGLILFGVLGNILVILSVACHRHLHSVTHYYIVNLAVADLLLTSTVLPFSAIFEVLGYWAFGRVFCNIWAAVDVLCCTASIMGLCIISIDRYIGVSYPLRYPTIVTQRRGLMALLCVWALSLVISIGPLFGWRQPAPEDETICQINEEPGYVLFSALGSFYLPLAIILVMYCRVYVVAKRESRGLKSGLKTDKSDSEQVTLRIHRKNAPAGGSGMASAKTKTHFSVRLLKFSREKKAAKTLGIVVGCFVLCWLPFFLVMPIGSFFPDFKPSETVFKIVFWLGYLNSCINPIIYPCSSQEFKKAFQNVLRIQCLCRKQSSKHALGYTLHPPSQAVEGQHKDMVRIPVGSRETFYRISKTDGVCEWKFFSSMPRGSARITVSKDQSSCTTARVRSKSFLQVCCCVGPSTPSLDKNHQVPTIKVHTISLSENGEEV

[17] = target: T6, 5-hydroxytryptamine receptor 1A (Homo sapiens, UniProt P08908); assay: Binding affinity to 5HT1A
T6 sequence (P08908 whole entry): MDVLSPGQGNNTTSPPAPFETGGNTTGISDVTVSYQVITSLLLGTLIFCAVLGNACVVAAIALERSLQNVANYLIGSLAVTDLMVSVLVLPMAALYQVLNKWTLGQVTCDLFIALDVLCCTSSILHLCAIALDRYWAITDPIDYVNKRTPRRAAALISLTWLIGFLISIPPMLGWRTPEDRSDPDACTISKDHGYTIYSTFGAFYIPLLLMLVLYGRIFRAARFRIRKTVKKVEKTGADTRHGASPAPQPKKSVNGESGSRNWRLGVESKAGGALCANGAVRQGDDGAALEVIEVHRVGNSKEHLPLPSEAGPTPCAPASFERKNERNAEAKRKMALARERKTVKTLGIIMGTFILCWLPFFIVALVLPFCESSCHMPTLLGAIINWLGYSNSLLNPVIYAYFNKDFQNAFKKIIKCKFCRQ

[18] = target: T7, D(4) dopamine receptor (Homo sapiens, UniProt P21917); assay: Binding affinity to human cloned dopamine D4.4 receptor
T7 sequence (P21917 whole entry): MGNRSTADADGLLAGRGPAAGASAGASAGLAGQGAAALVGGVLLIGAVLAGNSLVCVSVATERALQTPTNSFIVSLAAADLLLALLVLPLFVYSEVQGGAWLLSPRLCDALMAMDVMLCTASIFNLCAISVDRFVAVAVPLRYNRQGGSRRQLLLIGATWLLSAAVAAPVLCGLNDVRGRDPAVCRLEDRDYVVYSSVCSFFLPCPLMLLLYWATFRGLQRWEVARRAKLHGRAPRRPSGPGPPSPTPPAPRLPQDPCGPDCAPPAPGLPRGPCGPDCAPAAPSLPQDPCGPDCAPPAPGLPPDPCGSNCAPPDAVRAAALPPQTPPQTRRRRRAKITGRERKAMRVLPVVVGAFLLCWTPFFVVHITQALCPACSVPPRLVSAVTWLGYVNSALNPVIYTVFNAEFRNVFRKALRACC

[19] = Binding affinity to human cloned dopamine D4.2 receptor
[20] = target: 5-hydroxytryptamine receptor 2A (Homo sapiens, UniProt P28223); assay: Binding affinity to 5HT2A
[21] = Binding affinity to human cloned dopamine D4.7 receptor
[22] = species on record: Homo sapiens; assay: Selectivity for human alpha1A adrenergic receptor over human cloned alpha2B adrenergic receptor
[23] = species on record: Homo sapiens; assay: Selectivity for human alpha1A adrenergic receptor over human cloned Alpha-2C adrenergic receptor
[24] = species on record: Homo sapiens; assay: Selectivity for human alpha1A adrenergic receptor over human cloned alpha2A adrenergic receptor
[25] = Selectivity for alpha2 adrenergic receptor over alpha1 adrenergic receptor
[26] = Binding affinity to adrenergic alpha1L receptor
[27] = Dissociation constant, pKb of the compound; format: physicochemical
[28] = target: T8, Alpha-1D adrenergic receptor (Homo sapiens) (UniProt P25100); assay: Antagonist activity at adrenergic Alpha-1D receptor; format: functional
T8 sequence (whole entry): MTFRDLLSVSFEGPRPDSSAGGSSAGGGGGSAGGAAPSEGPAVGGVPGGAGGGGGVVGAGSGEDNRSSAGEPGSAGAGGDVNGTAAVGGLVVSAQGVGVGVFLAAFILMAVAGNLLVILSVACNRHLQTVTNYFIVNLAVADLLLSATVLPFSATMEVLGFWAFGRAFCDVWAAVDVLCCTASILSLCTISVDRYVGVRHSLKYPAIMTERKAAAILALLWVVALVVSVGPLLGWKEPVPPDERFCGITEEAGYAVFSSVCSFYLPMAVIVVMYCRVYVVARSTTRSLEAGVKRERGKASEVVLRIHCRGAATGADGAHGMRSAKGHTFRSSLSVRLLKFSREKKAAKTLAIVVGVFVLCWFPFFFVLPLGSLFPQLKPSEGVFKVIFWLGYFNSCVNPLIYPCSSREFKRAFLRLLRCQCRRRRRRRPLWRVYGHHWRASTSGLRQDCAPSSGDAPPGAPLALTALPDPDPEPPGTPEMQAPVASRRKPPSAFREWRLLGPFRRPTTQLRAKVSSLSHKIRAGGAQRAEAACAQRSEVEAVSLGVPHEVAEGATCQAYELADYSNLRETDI

[29] = target: T9, Alpha-1B adrenergic receptor (Homo sapiens) (UniProt P35368); assay: Antagonist activity at adrenergic Alpha-1B receptor; format: functional
T9 sequence (whole entry): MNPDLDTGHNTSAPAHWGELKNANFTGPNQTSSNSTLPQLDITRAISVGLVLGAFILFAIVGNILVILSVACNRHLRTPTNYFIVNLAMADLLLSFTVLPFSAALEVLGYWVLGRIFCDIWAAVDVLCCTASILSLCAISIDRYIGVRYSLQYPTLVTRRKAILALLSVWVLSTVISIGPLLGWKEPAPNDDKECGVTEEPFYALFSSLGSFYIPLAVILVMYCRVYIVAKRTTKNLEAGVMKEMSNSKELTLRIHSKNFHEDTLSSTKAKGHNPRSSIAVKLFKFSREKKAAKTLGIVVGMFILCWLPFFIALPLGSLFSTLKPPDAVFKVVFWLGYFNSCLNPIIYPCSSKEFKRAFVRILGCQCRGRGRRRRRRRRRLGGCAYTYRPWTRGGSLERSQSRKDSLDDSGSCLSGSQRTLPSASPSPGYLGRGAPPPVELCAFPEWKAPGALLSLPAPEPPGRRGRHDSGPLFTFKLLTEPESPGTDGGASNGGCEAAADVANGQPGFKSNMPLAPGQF

Sequence of D(3) dopamine receptor (P35462 whole entry): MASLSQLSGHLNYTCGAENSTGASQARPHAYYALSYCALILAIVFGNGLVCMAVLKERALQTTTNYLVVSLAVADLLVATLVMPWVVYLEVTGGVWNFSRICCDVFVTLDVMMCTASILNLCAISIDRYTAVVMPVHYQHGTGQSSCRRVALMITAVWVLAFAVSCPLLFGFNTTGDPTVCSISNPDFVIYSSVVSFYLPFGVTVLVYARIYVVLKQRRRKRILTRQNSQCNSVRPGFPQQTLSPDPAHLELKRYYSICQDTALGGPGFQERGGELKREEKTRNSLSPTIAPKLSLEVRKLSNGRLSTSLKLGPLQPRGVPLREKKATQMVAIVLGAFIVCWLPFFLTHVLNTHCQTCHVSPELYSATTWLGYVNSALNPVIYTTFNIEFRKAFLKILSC
Sequence of 5-hydroxytryptamine receptor 1B (P28222 whole entry): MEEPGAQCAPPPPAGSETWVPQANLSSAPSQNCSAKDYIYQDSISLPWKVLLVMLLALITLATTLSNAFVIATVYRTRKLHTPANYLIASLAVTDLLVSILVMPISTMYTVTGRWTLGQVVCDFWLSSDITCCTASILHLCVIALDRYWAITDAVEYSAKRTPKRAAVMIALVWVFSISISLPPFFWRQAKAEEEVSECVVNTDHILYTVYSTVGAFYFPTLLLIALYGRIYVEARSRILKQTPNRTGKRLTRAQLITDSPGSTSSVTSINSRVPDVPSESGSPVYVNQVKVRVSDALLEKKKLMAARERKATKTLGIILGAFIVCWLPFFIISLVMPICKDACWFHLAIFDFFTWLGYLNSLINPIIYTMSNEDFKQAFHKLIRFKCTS
Sequence of D(2) dopamine receptor (P14416 whole entry): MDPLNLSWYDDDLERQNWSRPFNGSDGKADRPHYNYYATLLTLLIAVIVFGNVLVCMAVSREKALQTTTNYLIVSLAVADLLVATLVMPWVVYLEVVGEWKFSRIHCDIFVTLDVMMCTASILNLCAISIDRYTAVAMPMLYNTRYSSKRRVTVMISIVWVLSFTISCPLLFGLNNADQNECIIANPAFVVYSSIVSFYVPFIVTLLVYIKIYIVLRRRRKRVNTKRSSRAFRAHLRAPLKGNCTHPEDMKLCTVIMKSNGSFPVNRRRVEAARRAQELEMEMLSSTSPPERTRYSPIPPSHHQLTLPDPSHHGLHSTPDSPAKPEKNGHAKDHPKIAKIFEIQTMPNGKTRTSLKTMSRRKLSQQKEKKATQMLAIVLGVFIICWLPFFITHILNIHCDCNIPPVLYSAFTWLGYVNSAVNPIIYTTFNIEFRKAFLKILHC
Sequence of 5-hydroxytryptamine receptor 2A (P28223 whole entry): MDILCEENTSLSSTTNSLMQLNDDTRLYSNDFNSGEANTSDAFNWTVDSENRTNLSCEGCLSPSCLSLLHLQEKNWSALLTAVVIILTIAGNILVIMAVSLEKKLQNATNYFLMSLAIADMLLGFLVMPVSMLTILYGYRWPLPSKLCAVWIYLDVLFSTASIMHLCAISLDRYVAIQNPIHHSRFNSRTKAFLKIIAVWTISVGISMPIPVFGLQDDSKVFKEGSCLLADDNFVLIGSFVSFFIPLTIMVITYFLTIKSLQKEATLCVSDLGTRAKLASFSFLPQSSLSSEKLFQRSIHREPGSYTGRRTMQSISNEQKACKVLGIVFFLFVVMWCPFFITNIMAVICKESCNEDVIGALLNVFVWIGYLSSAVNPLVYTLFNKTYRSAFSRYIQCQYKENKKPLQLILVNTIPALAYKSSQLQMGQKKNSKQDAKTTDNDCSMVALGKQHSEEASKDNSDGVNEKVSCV

COc1ccccc1N1CCN(CCNC(=O)c2ccco2)CC1.Cl
pA2 [1]: 9.12

COC(=O)[C@@H]1[C@H]2C[C@H]3c4[nH]c5ccccc5c4CCN3C[C@@H]2CC[C@@H]1O
Kb [2]: < 100 nM | Kb [3]: > 300 nM

COc1cccc(OC)c1OCCNCC1COc2ccccc2O1 (configuration not stated)
Ki [4]: 0.54 nM

COc1cccc(N2CCN(CCNC(=O)c3ccco3)CC2)c1.Cl
pA2 [1]: 8.56

Cc1cc(C)c2c(N)nc(N3CCN(C(=O)c4ccco4)CC3)nc2n1
Kb [5]: 15.8 nM

NC(=O)CN(CCc1ccccc1)C(=O)CN(C(=O)CNCCc1ccc(O)cc1)c1ccc(-c2ccccc2)cc1
Ki ([4]; read-out: Ki): 0.32 nM

CCS(=O)(=O)Nc1cccc(Cc2c[nH]cn2)c1
EC50 [6]: 60 nM | Activity [7]: 11% | Activity [8]: 80% | Kb [9]: 3980 nM | pD2 [10]: 6.16

NC(=O)CN(CCc1ccccc1)C(=O)CN(C(=O)CNCCc1ccc(O)cc1)c1ccc(Oc2ccccc2)cc1
Ki ([4]; read-out: Ki): 140 nM

CC(C)Oc1ccccc1N1CCN(Cc2cccc(C(=O)N3CCCCC3)c2)CC1 [MAZAPERTINE]
Ki [11]: 17 nM | Ki [12]: < 4 nM | Ki ([4]; read-out: Ki): < 4 nM | Ki [13]: < 4 nM | Ki [14]: 2880 nM | Ki [15]: 165 nM | Ki [16]: 0.02 nM | Ki [17]: < 4 nM

Nc1nc(-c2ccc(F)cc2)c([C@@H]2CCN(CCCC(=O)c3ccc(F)cc3)C2)s1
Ki [18]: 0.55 nM | Ki ([4]; read-out: Ki): 1.4 nM | Ki [19]: 2.54 nM | Ki [20]: 1.92 nM | Ki [21]: 0.54 nM

COC(=O)C1=C(C)NC(C)=C(C(=O)NCCCN2CCC(c3ccccc3)(c3ccccc3)CC2)C1c1ccc([N+](=O)[O-])cc1 (configuration not stated)
Selectivity ratio [22]: > 1000 | Selectivity ratio [23]: > 1000 | Selectivity ratio [24]: > 1000

COc1ccccc1OCCN1CCN(c2ccc(=O)n(Cn3nc(N4CCN(CCOc5ccccc5OC)CC4)ccc3=O)n2)CC1
Selectivity ratio [25]: > 100

NC(=O)CN(CCc1ccc(-c2ccccc2)cc1)C(=O)CN(C(=O)CNCCc1ccc(O)cc1)c1ccc(-c2ccccc2)cc1
Ki ([4]; read-out: Ki): 310 nM

COc1ccc(Cl)cc1N1CCN(CCNC(=O)c2ccco2)CC1.Cl
pA2 [1]: 8.56

CN1CCN(C2=Nc3cc(Cl)ccc3Nc3ccccc32)CC1 [CLOZAPINE]
Ki ([4]; read-out: Ki): 1.4 nM

COc1cc2nc(N3CCN(C(=O)c4ccco4)CC3)nc(N)c2cc1OC [PRAZOSIN]
Ki ([4]; read-out: Ki): 0.32 nM | Kb [2]: > 2 nM | Kb [3]: < 1 nM | Kb [26]: > 2 nM | Kb [5]: 10 nM

COc1ccccc1OCCN1CCN(c2ccn[nH]c2=O)CC1
pKb [27]: 6.18

O=C1NCCN1CCN1CCC(c2cn(-c3ccc(F)cc3)c3ccc(Cl)cc23)CC1
Activity [28]: 9 nM | Activity [29]: 3.2 nM

O=C(CCCN1CCC(O)(c2ccc(Cl)cc2)CC1)c1ccc(F)cc1 [HALOPERIDOL]
Ki ([4]; read-out: Ki): 1 nM
